ChEMBL document CHEMBL1201862, “PubChem BioAssay data set” (2004)
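All cell lines were grown in 96-well plates and treated with compound for 48 hours. Here, GI50 denotes the concentration required for 50% inhibition of growth.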 Active and inactive are the calls of the source. Rule as the data show it: active = GI50 up to about 1.1 µM and inactive = higher.

What was measured:
Assay in all cases: NCI-60 cell line screen, 48 h
SK-MEL-28 = tested on: SK-MEL-28
SNB-75 = tested on: SNB-75
HT-29 = tested on: HT-29
NCI-H522 = tested on: NCI-H522
SK-MEL-5 = tested on: SK-MEL-5
HCT-15 = tested on: HCT-15
U-251 = tested on: U-251
K562 = tested on: K562
HCC 2998 = tested on: HCC 2998
ACHN = tested on: ACHN
NCI-H23 = tested on: NCI-H23
CCRF-CEM = tested on: CCRF-CEM
CAKI-1 = tested on: CAKI-1
IGROV-1 = tested on: IGROV-1
HCT-116 = tested on: HCT-116
SW-620 = tested on: SW-620

Structure (SMILES) | GI50 (SK-MEL-28) | GI50 (SNB-75) | GI50 (HT-29) | GI50 (NCI-H522) | GI50 (SK-MEL-5) | GI50 (HCT-15) | GI50 (U-251) | GI50 (K562) | GI50 (HCC 2998) | GI50 (ACHN) | GI50 (NCI-H23) | GI50 (CCRF-CEM) | GI50 (CAKI-1) | GI50 (IGROV-1) | GI50 (HCT-116) | GI50 (SW-620)
Cc1cccc2[s+]snc12 | > 47.5 µM (inactive) | > 100 µM (inactive) | > 100 µM (inactive) | 18.4 µM (inactive) | > 100 µM (inactive) | > 47.4 µM | > 100 µM (inactive) | 24.9 µM (inactive) | > 100 µM (inactive) | 63.5 µM (inactive) | > 96.6 µM (inactive) | 23.9 µM (inactive) | > 78.2 µM (inactive) | > 100 µM (inactive) | > 59.4 µM (inactive) | 24.2 µM (inactive)
O=C(CCc1nnc2s/c(=C\c3ccc(Cl)c(Cl)c3)c(=O)n12)Nc1ccc(Cl)c(Cl)c1 | > 100 µM (inactive) | 58.3 µM (inactive) | > 100 µM (inactive) | 25.1 µM (inactive) | 43.9 µM (inactive) | > 100 µM | 36.9 µM (inactive) | 72.8 µM (inactive) | > 100 µM (inactive) | > 100 µM (inactive) | > 100 µM (inactive) | 22.5 µM (inactive) | > 100 µM (inactive) | 44.2 µM (inactive) | > 100 µM (inactive) | > 100 µM (inactive)
CC(=O)O[C@H]1CCC2[C@@H]3CCC4Nc5[nH]ncc5C[C@]4(C)C3CC[C@@]21C (some centres not stated) |  | 54 µM (inactive) | 45.3 µM (inactive) | 21.4 µM (inactive) | 24.5 µM (inactive) | 44.6 µM | 80.2 µM (inactive) | 36.3 µM (inactive) | 30.2 µM (inactive) | > 100 µM (inactive) | 61.2 µM (inactive) | 22.4 µM (inactive) | 45.1 µM (inactive) | > 100 µM (inactive) | 64.9 µM (inactive) | 36.8 µM (inactive)
CCOC(=O)N1CCN(P(=O)(Nc2ccc3[nH]c(NC(=O)OC)nc3c2)Oc2ccccc2)CC1 (configuration not stated) | > 100 µM (inactive) | 77.6 µM (inactive) | > 100 µM (inactive) | 37.5 µM (inactive) |  | > 100 µM | > 100 µM (inactive) | 35 µM (inactive) | > 100 µM (inactive) | > 100 µM (inactive) | > 100 µM (inactive) | 86.1 µM (inactive) | > 100 µM (inactive) | > 100 µM (inactive) | > 100 µM (inactive) | > 100 µM (inactive)
COc1ccc(C(C#N)NNC(=O)c2ccccc2O)cc1OC (configuration not stated) | 28.6 µM (inactive) | 0.331 µM (active) | 30.1 µM (inactive) | 3.28 µM (inactive) | 8.95 µM (inactive) | 0.893 µM | 0.45 µM (active) | 0.356 µM (active) |  | 0.384 µM (active) | 0.746 µM (active) | 1.21 µM (inactive) | 0.394 µM (active) | 0.547 µM (active) | 0.401 µM (active) | 4.56 µM (inactive)
C[n+]1cc(C(O)c2ccc3c(c2)OCO3)c2ccccc2c1 (configuration not stated) |  | 41.1 µM (inactive) | 51.2 µM (inactive) | 16 µM (inactive) | 17.9 µM (inactive) | 33.5 µM | 27 µM (inactive) | 25.1 µM (inactive) | 37.8 µM (inactive) | 29.1 µM (inactive) |  | 29.9 µM (inactive) | 13.9 µM (inactive) | 47.4 µM (inactive) | 28.4 µM (inactive) | 44.2 µM (inactive)
Cc1[nH]c2ccccc2c1C(=O)CC1(O)C(=O)Nc2ccccc21 (configuration not stated) | > 100 µM (inactive) | > 100 µM (inactive) | > 100 µM (inactive) |  | > 100 µM (inactive) | > 100 µM | > 100 µM (inactive) | > 100 µM (inactive) | > 100 µM (inactive) | > 100 µM (inactive) | > 100 µM (inactive) | > 100 µM (inactive) | > 100 µM (inactive) | > 100 µM (inactive) | > 100 µM (inactive) | > 100 µM (inactive)
COc1cc2c(cc1OC)C(C(CO)CO)N(CC(O)CCl)CC2 (configuration not stated) | > 100 µM (inactive) | > 100 µM (inactive) | > 100 µM (inactive) | > 100 µM (inactive) | > 100 µM (inactive) | > 100 µM | > 100 µM (inactive) | > 100 µM (inactive) | > 100 µM (inactive) | > 100 µM (inactive) | > 100 µM (inactive) | > 100 µM (inactive) | > 100 µM (inactive) | > 100 µM (inactive) |  | > 100 µM (inactive)
CSc1nc(Cl)c(Br)c(Sc2nc(N)nc3nc[nH]c23)n1 | 11 µM (inactive) | 3.03 µM (inactive) | 9.86 µM (inactive) | 1.63 µM (inactive) | 12.5 µM (inactive) | 5.66 µM | 4.48 µM (inactive) | 3.34 µM (inactive) | 3.79 µM (inactive) | 15.3 µM (inactive) | 10.4 µM (inactive) | 2.77 µM (inactive) | 3.42 µM (inactive) | 13.5 µM (inactive) | 2.84 µM (inactive) | 7.43 µM (inactive)
